Where two headings read alike, the source gives them in different places.
How the values were obtained:
[1] = Pharmacokinetic Study of Compound A Alone and in Combination with Indinavir in Healthy Human Males (Example 11); type: in vivo
Procedure: A double-blind, single-rising dose, alternating two-panel, four-period, placebo-controlled study was conducted for Compound A alone and in combination with Indinavir in healthy adult males in the fasted state. […] All of the doses of Compound A were administered as the sulfate salt form of Compound A. All of the Compound A doses were oral suspensions of the sulfate salt form in sterile water, except that the 600-mg doses administered to Panel B in the fourth period were tablets. Indinavir was administered in the form of CRIXIVAN® capsules. The safety of the subjects was monitored prior and subsequent to dosing by clinical adverse event reporting, measurement of vital signs, physical examinations, blood and urine laboratory safety tests, and ECGs. Plasma concentrations of Compound A were determined predose and at 0.5, 1, 1.5, 2, 3, 4, 6, 8, 12, 16, 20, 24, 30, 36 and 48 hours following each single dose in each period, using a reverse-phase HPLC column switching method with fluorescence detection.

[2] = test system: wild-type HIV-1; assay: microbe, parasite or virus in culture; type: cell-based
[3] = Pharmacokinetic Study of Compound A in Healthy Human Males (Example 10); type: in vivo; conditions: 20 mg single oral dose, suspension, fasted
Procedure: A double-blind, single-rising dose, alternating two-panel, four-period, placebo-controlled study was conducted for Compound A in healthy adult males in the fasted state. Single doses of 20, 50, 100, 200, 400, 800 and 1200 mg of Compound A, or placebo, were administered as an oral suspension of the sulfate salt form of Compound A in sterile water. Each subject received increasing single oral doses of Compound A or placebo during each of the four treatment periods in alternate panels. Panel A dosage levels were 20, 100, 400 mg, and 400 mg with food. Panel B dosage levels were 50, 200, 800 and 1200 mg. For each period, 6 subjects received Compound A and 2 subjects received placebo as allocated by a randomized schedule. In Panel A, subjects who received 400 mg of Compound A also received 400 mg of Compound A with food. The safety of the subjects was monitored prior and subsequent to dosing by clinical adverse event reporting, measurement of vital signs, physical examinations, blood and urine laboratory safety tests, and ECGs. Plasma concentrations of Compound A were determined predose and at 0.5, 1, 1.5, 2, 3, 4, 6, 10, 12, 24, 32 and 48 hours following each single dose in each period, using a reverse-phase HPLC column switching method with fluorescence detection.

[4] = Pharmacokinetic Study in Healthy Human Males of Compound A in Combination with Indinavir with and without Fasting (Example 12); type: in vivo; conditions: co-administered with Indinavir, with food vs without food
Procedure: All of the subjects received the regimen once in the fasted state and once with a high-fat breakfast. The two single-dose treatments (fasted, fed) were administered in randomized crossover fashion, separated by one week. For treatments with food a breakfast consisting of two eggs, two strips of bacon, toast with two pats of butter (2×12.5 g), 120 g of fried potatoes and 240 ml of whole milk were consumed in no more than 15 minutes, and the test medication was administered within 5 minutes after completion of the breakfast.
All of the doses of Compound A were administered as the sulfate salt form of Compound A. All of the Compound A doses were tablets containing 200 mg of Compound A. Other ingredients in the tablets included microcrystalline cellulose (Avicel PH 101), mannitol SD 200, croscarmellose sodium, hydroxypropyl cellulose and magnesium stearate. […]
The safety of the subjects was monitored prior and subsequent to dosing by clinical adverse event reporting, measurement of vital signs, physical examinations, blood and urine laboratory safety tests, and ECGs. Plasma concentrations of Compound A were determined predose and at 0.5, 1, 1.5, 2, 3, 4, 6, 8, 12, 16, 20, 24, 30, 36 and 48 hours following each single dose in each period, using a reverse-phase HPLC column switching method with fluorescence detection.

[5] = administration to humans, plasma concentrations (general statements); type: in vivo, human
Text: Compound (b) is preferably selected from the group consisting of Indinavir, Ritonavir, and pharmaceutically acceptable salts thereof, and is most preferably Indinavir or a pharmaceutically acceptable salt or ester thereof. Particularly preferred is the composition in which (a) is the sulfate salt of Compound A and (b) is the sulfate salt of Indinavir. It has been discovered that the foregoing compounds of (b), when employed in combination with Compound A, can increase the plasma concentration of Compound A to a level having substantial antiviral activity.

[6] = 200 mg Compound A + 800 mg Indinavir relative to 200 mg Compound A alone
[7] = Compound A in combination with Indinavir

With `CC(C)(C)NC(=O)[C@@H]1CN(Cc2cc3ccccc3o2)CCN1C[C@@H](O)C[C@@H](Cc1ccccc1)C(=O)N[C@H]1c2ccccc2C[C@H]1O` [Compound A, N-(2(R)-hydroxy-1(S)-indanyl)-2(R)-phenylmethyl-4-(S)-hydroxy-5-(1-(4-(2-benzo[b]furanylmethyl)-2(S)-N'-(t-butylcarboxamido)-piperazinyl))-pentaneamide] the “AUC increase (times higher)” value [1, 6] was “about 30 ×”, the “C8 hrs increase (times higher)” value [1, 6] was roughly 46 × and the “Cmax increase (times higher)” value [1, 6] was “about 19 ×”. For the same compound, the “AUC increase (fold higher)” value ([1]; 600 mg Compound A + 800 mg Indinavir relative to Compound A alone) was “about 18 fold”, the IC95 ([2]; Human immunodeficiency virus 1, wild-type HIV-1, Cell Spread Assay, read-out: CIC95) was 25 nM and the “potency relative to Indinavir” value ([2]; wild type HIV-1, in vitro) was “approximately two-fold greater potency than Indinavir”. For the same compound, the plasma concentrations [3] was “below the assay quantification limit”, the “Compound A plasma levels, fed versus fasted” value [4] was “higher Compound A plasma levels” and the “effect of Indinavir on inter-individual variation of Compound A plasma concentrations” value [5, 7] was “markedly reduces inter-individual variation”. The “effect of Indinavir on plasma concentrations of Compound A” value [5, 7] was “substantially increase the plasma concentrations”, the “inter-individual variation in the plasma levels” value ([5]; humans, Compound A alone, vs Indinavir) was “significant inter-individual variation” and the “plasma concentration increase with successively higher doses” value ([5]; humans, dose proportionality) was “greater than proportional increases in plasma concentrations”. For the same compound, the “plasma concentrations of Compound A” value ([5]; humans, relative to comparable doses of Indinavir) was “very low plasma concentrations”.

With `CC(C)(C)NC(=O)[C@@H]1CN(Cc2cccnc2)CCN1C[C@@H](O)C[C@@H](Cc1ccccc1)C(=O)N[C@H]1c2ccccc2C[C@H]1O` [Indinavir, N-(2(R)-hydroxy-1(S)-indanyl)2(R)-phenylmethyl-4-(S)-hydroxy-5-(1-(4-(3-pyridylmethyl)-2(S)-N'-(t-butylcarboxamido)-piperazinyl))-pentaneamide, reference compound] the IC95 ([2]; Human immunodeficiency virus 1, read-out: CIC95) was 50 nM.
